Data from the NIST ThermoML archive (doi:10.1016/j.fluid.2010.01.023).
Where “and” joins values, the source holds several entries; their conditions need not be identical. Identical values can stand only once. ± gives the expanded uncertainty stated by the source.

Assay: xn = mol fraction of the nth substance listed
Conditions: Fluid (supercritical or subcritical phases), quasistatic thermogram and barogram, x2 = 0.7393

N [ammonia] + O
Conditions | thermal pressure coefficient
330.88 K, Mass density=540.25 kg/m3 | 7 ± 1 kPa/K
349.52 K, Mass density=540.25 kg/m3 | 12 ± 1 kPa/K
366.71 K, Mass density=540.25 kg/m3 | 17 ± 1 kPa/K
397.73 K, Mass density=540.25 kg/m3 | 32 ± 1 kPa/K
402.59 K, Mass density=671.23 kg/m3 | 30 ± 1 kPa/K
407.37 K, Mass density=649.65 kg/m3 | 37 ± 1 kPa/K
407.57 K, Mass density=649.65 kg/m3 | 37 ± 1 kPa/K
407.79 K, Mass density=649.65 kg/m3 | 40 ± 1 kPa/K
421.43 K, Mass density=540.25 kg/m3 | 43 ± 1 kPa/K
446.89 K, Mass density=540.25 kg/m3 | 58 ± 1 kPa/K
473.33 K, Mass density=540.25 kg/m3 | 77 ± 1 kPa/K
478.28 K, Mass density=671.23 kg/m3 | 86 ± 1 kPa/K
485.04 K, Mass density=671.23 kg/m3 | 86 ± 1 kPa/K
492.71 K, Mass density=671.23 kg/m3 | 87 ± 1 kPa/K
494.07 K, Mass density=540.25 kg/m3 | 97 ± 1 kPa/K
498.62 K, Mass density=671.23 kg/m3 | 97 ± 1 kPa/K
507.04 K, Mass density=671.23 kg/m3 | 118 ± 1 kPa/K
508.36 K, Mass density=671.23 kg/m3 | 941 ± 42 kPa/K
509.3 K, Mass density=649.65 kg/m3 | 106 ± 34 kPa/K
509.3 K, Mass density=671.23 kg/m3 | 935 ± 35 kPa/K
513.52 K, Mass density=671.23 kg/m3 | 976 ± 37 kPa/K
514.53 K, Mass density=649.65 kg/m3 | 119 ± 35 kPa/K
516.77 K, Mass density=540.25 kg/m3 | 116 ± 1 kPa/K
517.23 K, Mass density=540.25 kg/m3 | 119 ± 1 kPa/K
519.21 K, Mass density=649.65 kg/m3 | 137 ± 5 kPa/K
519.86 K, Mass density=649.65 kg/m3 | 896 ± 5 kPa/K
520.05 K, Mass density=649.65 kg/m3 | 897 ± 5 kPa/K
520.42 K, Mass density=649.65 kg/m3 | 899 ± 5 kPa/K
521.54 K, Mass density=649.65 kg/m3 | 899 ± 12 kPa/K
527.01 K, Mass density=649.65 kg/m3 | 915 ± 13 kPa/K
527.03 K, Mass density=456.58 kg/m3 | 125 ± 1 kPa/K
530.51 K, Mass density=552.58 kg/m3 | 130 ± 1 kPa/K
530.67 K, Mass density=594.32 kg/m3 | 131 ± 5 kPa/K
530.98 K, Mass density=476.25 kg/m3 | 129 ± 1 kPa/K
534.1 K, Mass density=594.32 kg/m3 | 139 ± 1 kPa/K
536.84 K, Mass density=540.25 kg/m3 | 135 ± 1 kPa/K
537.29 K, Mass density=540.25 kg/m3 | 135 ± 1 kPa/K
539.15 K, Mass density=594.32 kg/m3 | 145 ± 1 kPa/K
539.88 K, Mass density=552.58 kg/m3 | 138 ± 1 kPa/K
540.06 K, Mass density=476.25 kg/m3 | 137 ± 1 kPa/K
540.79 K, Mass density=476.25 kg/m3 | 137 ± 1 kPa/K
541.46 K, Mass density=594.32 kg/m3 | 152 ± 1 kPa/K
541.53 K, Mass density=456.58 kg/m3 | 139 ± 1 kPa/K
542.16 K, Mass density=594.32 kg/m3 | 153 ± 1 kPa/K
544.61 K, Mass density=594.32 kg/m3 | 158 ± 1 kPa/K
545.26 K, Mass density=594.32 kg/m3 | 161 ± 39 kPa/K
546.16 K, Mass density=594.32 kg/m3 | 744 ± 72 kPa/K
546.26 K, Mass density=594.32 kg/m3 | 736 ± 15 kPa/K
548.44 K, Mass density=476.25 kg/m3 | 146 ± 1 kPa/K
549.77 K, Mass density=594.32 kg/m3 | 742 ± 11 kPa/K
550.79 K, Mass density=552.58 kg/m3 | 152 ± 8 kPa/K
551.43 K, Mass density=552.58 kg/m3 | 154 ± 8 kPa/K
552.99 K, Mass density=456.58 kg/m3 | 160 ± 1 kPa/K
553.25 K, Mass density=456.58 kg/m3 | 154 ± 1 kPa/K
553.7 K, Mass density=376.89 kg/m3 | 161 ± 1 kPa/K
554.5 K, Mass density=552.58 kg/m3 | 156 ± 1 kPa/K
555.04 K, Mass density=552.58 kg/m3 | 159 ± 1 kPa/K
556.55 K, Mass density=540.25 kg/m3 | 159 ± 1 kPa/K
556.9 K, Mass density=456.58 kg/m3 | 158 ± 1 kPa/K
558.82 K, Mass density=552.58 kg/m3 | 167 ± 1 kPa/K
559.36 K, Mass density=476.25 kg/m3 | 160 ± 1 kPa/K
560.44 K, Mass density=552.58 kg/m3 | 171 ± 1 kPa/K
562 K, Mass density=552.58 kg/m3 | 654 ± 51 kPa/K
562.66 K, Mass density=540.25 kg/m3 | 177 ± 29 kPa/K
563.63 K, Mass density=342.18 kg/m3 | 162 ± 1 kPa/K
563.98 K, Mass density=540.25 kg/m3 | 181 ± 7 kPa/K
564.69 K, Mass density=540.25 kg/m3 | 185 ± 8 kPa/K
565.22 K, Mass density=540.25 kg/m3 | 186 ± 3 kPa/K
565.31 K, Mass density=540.25 kg/m3 | 187 ± 3 kPa/K
566.19 K, Mass density=540.25 kg/m3 | 611 ± 5 kPa/K
566.98 K, Mass density=540.25 kg/m3 | 606 ± 5 kPa/K
568.48 K, Mass density=456.58 kg/m3 | 174 ± 1 kPa/K
570.03 K, Mass density=476.25 kg/m3 | 179 ± 7 kPa/K
570.81 K, Mass density=476.25 kg/m3 | 182 ± 4 kPa/K
571.02 K, Mass density=376.89 kg/m3 | 175 ± 1 kPa/K
571.35 K, Mass density=476.25 kg/m3 | 183 ± 4 kPa/K
571.99 K, Mass density=456.58 kg/m3 | 187 ± 1 kPa/K
572.95 K, Mass density=540.25 kg/m3 | 618 ± 5 kPa/K
574.99 K, Mass density=476.25 kg/m3 | 191 ± 4 kPa/K
575.79 K, Mass density=476.25 kg/m3 | 191 ± 6 kPa/K
575.93 K, Mass density=120.03 kg/m3 | 148 ± 4 kPa/K
576.8 K, Mass density=147.43 kg/m3 | 154 ± 5 kPa/K
578.55 K, Mass density=456.58 kg/m3 | 197 ± 1 kPa/K
578.75 K, Mass density=540.25 kg/m3 | 632 ± 5 kPa/K
579.5 K, Mass density=476.25 kg/m3 | 198 ± 8 kPa/K
579.85 K, Mass density=456.58 kg/m3 | 204 ± 1 kPa/K
580.18 K, Mass density=476.25 kg/m3 | 203 kPa/K and 452 kPa/K
580.65 K, Mass density=476.25 kg/m3 | 456 ± 6 kPa/K
580.9 K, Mass density=329 kg/m3 | 185 ± 6 kPa/K
581.27 K, Mass density=476.25 kg/m3 | 457 ± 3 kPa/K
581.59 K, Mass density=342.18 kg/m3 | 192 ± 1 kPa/K
581.68 K, Mass density=320.33 kg/m3 | 186 ± 6 kPa/K
581.77 K, Mass density=456.58 kg/m3 | 198 ± 8 kPa/K
582.01 K, Mass density=120.03 kg/m3 | 155 ± 5 kPa/K
582.45 K, Mass density=308.35 kg/m3 | 190 ± 6 kPa/K
582.46 K, Mass density=307.35 kg/m3 | 190 ± 6 kPa/K
582.55 K, Mass density=312.91 kg/m3 | 189 ± 6 kPa/K
582.99 K, Mass density=540.25 kg/m3 | 639 ± 3 kPa/K
583.68 K, Mass density=456.58 kg/m3 | 203 ± 9 kPa/K
583.77 K, Mass density=160.07 kg/m3 | 168 ± 5 kPa/K
584.72 K, Mass density=456.58 kg/m3 | 202 ± 7 kPa/K
584.81 K, Mass density=120.03 kg/m3 | 155 ± 5 kPa/K
584.88 K, Mass density=476.25 kg/m3 | 473 ± 3 kPa/K
584.95 K, Mass density=456.58 kg/m3 | 206 kPa/K and 410 kPa/K
585.31 K, Mass density=120.03 kg/m3 | 154 kPa/K and 128 kPa/K
585.68 K, Mass density=147.43 kg/m3 | 166 ± 5 kPa/K
586.08 K, Mass density=120.03 kg/m3 | 100 ± 4 kPa/K
586.37 K, Mass density=120.03 kg/m3 | 96 ± 3 kPa/K
587.24 K, Mass density=456.58 kg/m3 | 416 ± 2 kPa/K
589.66 K, Mass density=305.44 kg/m3 | 194 ± 6 kPa/K
590.01 K, Mass density=297.6 kg/m3 | 191 ± 6 kPa/K
590.09 K, Mass density=303.47 kg/m3 | 191 ± 6 kPa/K
590.18 K, Mass density=342.18 kg/m3 | 198 ± 1 kPa/K
590.18 K, Mass density=376.89 kg/m3 | 201 ± 1 kPa/K
590.7 K, Mass density=309.95 kg/m3 | 203 ± 6 kPa/K
591.04 K, Mass density=308.35 kg/m3 | 200 ± 6 kPa/K
591.13 K, Mass density=301.94 kg/m3 | 196 ± 6 kPa/K
591.13 K, Mass density=329 kg/m3 | 194 ± 6 kPa/K
591.32 K, Mass density=376.89 kg/m3 | 202 ± 1 kPa/K
591.47 K, Mass density=160.07 kg/m3 | 177 ± 5 kPa/K
591.47 K, Mass density=299.79 kg/m3 | 190 ± 6 kPa/K
591.47 K, Mass density=320.33 kg/m3 | 199 ± 6 kPa/K
591.73 K, Mass density=376.89 kg/m3 | 202 ± 1 kPa/K
592.08 K, Mass density=312.91 kg/m3 | 191 ± 6 kPa/K
592.42 K, Mass density=147.43 kg/m3 | 176 ± 5 kPa/K
592.68 K, Mass density=307.35 kg/m3 | 194 ± 6 kPa/K
592.94 K, Mass density=188.05 kg/m3 | 184 ± 6 kPa/K
593.2 K, Mass density=147.43 kg/m3 | 175 ± 5 kPa/K
593.54 K, Mass density=311.19 kg/m3 | 197 ± 6 kPa/K
593.89 K, Mass density=147.43 kg/m3 | 148 ± 5 kPa/K
594.06 K, Mass density=376.89 kg/m3 | 206 ± 2 kPa/K
594.14 K, Mass density=147.43 kg/m3 | 168 kPa/K and 141 kPa/K
